# Laboratory results: article PMC6108528, “Enhanced uptake of potassium or glycine betaine or export of cyclic-di-AMP restores osmoresistance in a high cyclic-di-AMP Lactococcus lactis mutant” (PLoS Genetics, 2018)
# Biological target: T1, full length BusR (Lactococcus cremoris, UniProt A2RK30)
# T1 construct: full length, His-6 tag fusion in pRSETA, codon optimised, E. coli BL21 whole cell lysate
# T1 sequence (A2RK30 1-206): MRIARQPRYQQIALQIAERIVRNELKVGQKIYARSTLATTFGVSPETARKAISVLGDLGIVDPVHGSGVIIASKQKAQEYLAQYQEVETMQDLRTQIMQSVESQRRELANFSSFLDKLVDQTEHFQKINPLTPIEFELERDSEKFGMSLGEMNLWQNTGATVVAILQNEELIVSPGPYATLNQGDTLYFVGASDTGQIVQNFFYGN
# Assay: DRaCALA with […]-c-di-AMP, E. coli whole cell lysate
# Assay type: biochemical
# Details: labelled compound; room temperature, 10 min
compound,measurement,value
Nc1ncnc2c1ncn2[C@@H]1O[C@@H]2COP(=O)(O)O[C@H]3[C@@H](O)[C@H](n4cnc5c(N)ncnc54)O[C@@H]3COP(=O)(O)O[C@H]2[C@H]1O [c-di-AMP],"DRaCALA with 32P-c-di-AMP, E. coli whole cell lysate",Both full length BusR and the BusR TrkA_C domain bound c-di-AMP
